From US20260297083A1, “SUBSTITUTED ACETYLENE COMPOUND DERIVATIVES AND THEIR PHARMACEUTICAL USE” (AVELOS THERAPEUTICS INC., priority 2023, published 2026) come the findings set out here.

In general, IC50 refers to the concentration needed to halve the response being measured. The low end stands for greater potency in that assay, the high end for weaker potency in that assay.

In the assay the test system is DLD-1 BRCA2(−/−) Cell. Nature of the assay: Cell viability assay (Resazurin) in DLD1-BRCA2 cells. The following applies: Homo sapiens, DLD-1, 336 h, 14 days, 1,500 cells/well, final DMSO 1%. Format: cell-based. Here is the method:
DLD1-BRCA2 KG (Horizon Discovery, Cat #HD 105-007) cells and DLD1-parental cells were maintained in culture media (RPMI-1640 including 2 mM L-glutamin and 25 mM sodium bicarbonate, supplemented with 10% FBS), at 37° C. in a humidified atmosphere with 5% CO2. Cells were seeded at the final concentration of 1,500 cells/well (DLD1-BRCA2 KG) and 600 cells/well (DLD1-parental) in a 96-well plate. Four hours later, test compounds were added (the final concentration of DMSO was 1%) to the cells and media were replaced every 3-4 days for 14 days. To measure viability, cells were incubated in culture media supplemented with 0.1 mg/ml of Resazurin (Merck, Cat #R7017) for 4 hours. The fluorescence was measured at Ex/Em=560 nm/590 nm using EnSight multimode plate reader (Perkin Elmer). Data analysis and IC50 calculation was done using GraphPad Prism (Version 10.0.2).
A general note: The colour change of resazurin is a common sign of viable cells or microbes.
On to `Cc1cc(C(F)(F)F)cc(N2C(=O)CC[C@H]2C(=O)N(CC#Cc2cnc(N)cn2)c2ccc(F)c(C)c2)n1` [Example 6, (2S)-N-[3-(5-aminopyrazin-2-yl)prop-2-ynyl]-N-(4-fluoro-3-methyl-phenyl)-1-[6-methyl-4-(trifluoromethyl)-2-pyridyl]-5-oxo-pyrrolidine-2-carboxamide], for which the IC50 is less than 1000 nM. `Cc1cc(C(F)(F)F)cc(N2[C@H](C(=O)N(CC#Cc3cc(N4CCOCC4)ncn3)c3ccc(F)c(C)c3)CCS2(=O)=O)n1` [Example 75, (S)-N-(4-fluoro-3-methylphenyl)-2-(6-methyl-4-(trifluoromethyl)pyridin-2-yl)-N-(3-(6-morpholinopyrimidin-4-yl)prop-2-yn-1-yl)isothiazolidine-3-carboxamide 1,1-dioxide]: the IC50 was less than 1000 nM. In turn, `Cc1cc(C(F)(F)F)cc(N2[C@H](C(=O)N(CC#Cc3ccc(C(N)=O)cn3)c3ccc(F)c(C)c3)CCS2(=O)=O)n1` [Example 97, (S)-N-(3-(5-carbamoylpyridin-2-yl)prop-2-yn-1-yl)-N-(4-fluoro-3-methylphenyl)-2-(6-methyl-4-(trifluoromethyl)pyridin-2-yl)isothiazolidine-3-carboxamide 1,1-dioxide] returned an IC50 of less than 1000 nM.

`Cc1cc(C(F)(F)F)cc(N2[C@H](C(=O)N(CC#Cc3cnc(N4C[C@@H](C)O[C@@H](C)C4)cn3)c3ccc(F)c(C)c3)CCS2(=O)=O)n1` [Example 47, (S)-N-(3-(5-((2S,6R)-2,6-dimethylmorpholino)pyrazin-2-yl)prop-2-yn-1-yl)-N-(4-fluoro-3-methylphenyl)-2-(6-methyl-4-(trifluoromethyl)pyridin-2-yl)isothiazolidine-3-carboxamide 1,1-dioxide] came in with a 50% inhibitory concentration (IC50) of 1100 to 5000 nM. To `Cc1cc(C(F)(F)F)cc(N2[C@H](C(=O)N(CC#Cc3ccc(N)nn3)c3ccc(F)c(C)c3)CN(C(C)C)S2(=O)=O)n1` [Example 110, (S)-N-(3-(6-aminopyridazin-3-yl)prop-2-yn-1-yl)-N-(4-fluoro-3-methylphenyl)-5-isopropyl-2-(6-methyl-4-(trifluoromethyl)pyridin-2-yl)-1,2,5-thiadiazolidine-3-carboxamide 1,1-dioxide] belongs 1100 to 5000 nM; to `Cc1cc(C(F)(F)F)cc(N2C(=O)CC[C@H]2C(=O)N(CC#CCN2CCN(c3cnccn3)CC2)c2ccc(F)c(C)c2F)n1` [Example 15, (S)—N-(2,4-difluoro-3-methylphenyl)-1-(6-methyl-4-(trifluoromethyl)pyridin-2-yl)-5-oxo-N-(4-(4-(pyrazin-2-yl)piperazin-1-yl)but-2-yn-1-yl)pyrrolidine-2-carboxamide], 1100 to 5000 nM. On to `Cc1cc(C(F)(F)F)cc(N2[C@@H](C(=O)N(CC#Cc3cnc(N)cn3)c3ccc(F)c(C)c3F)CCS2(=O)=O)n1` [Example 31, (R)-N-(3-(5-aminopyrazin-2-yl)prop-2-yn-1-yl)-N-(2,4-diffuoro-3-methylphenyl)-2-(6-methyl-4-(trifluoromethyl)pyridin-2-yl)isothiazolidine-3-carboxamide 1,1-dioxide], for which the IC50 was more than 5100 nM. In turn, `Cc1cc(C(F)(F)F)cc(N2[C@H](C(=O)N(CC#Cc3nccc(N4CCOCC4)n3)c3ccc(F)c(C)c3)CCS2(=O)=O)n1` [Example 80, (S)-N-(4-fluoro-3-methylphenyl)-2-(6-methyl-4-(trifluoromethyl)pyridin-2-yl)-N-(3-(4-morpholinopyrimidin-2-yl)prop-2-yn-1-yl)isothiazolidine-3-carboxamide 1,1-dioxide] displayed an IC50 of less than 1000 nM. For the molecule `Cc1cc(C(F)(F)F)cc(N2[C@H](C(=O)N(CC#Cc3ccc(NC(C)C)nn3)c3ccc(F)c(C)c3F)CCS2(=O)=O)n1` [Example 21, (S)-N-(2,4-difluoro-3-methylphenyl)-N-(3-(6-(isopropylamino)pyridazin-3-yl)prop-2-yn-1-yl)-2-(6-methyl-4-(trifluoromethyl)pyridin-2-carboxamide 1,1-dioxideyl)isothiazolidine-3-carboxamide 1,1-dioxide], the IC50 is less than 1000 nM. With `Cc1cc(C(F)(F)F)cc(N2[C@H](C(=O)N(CC#Cc3cccc(OC(C)C)n3)c3ccc(F)c(C)c3)CCS2(=O)=O)n1` [Example 88, (S)-N-(4-fluoro-3-methylphenyl)-N-(3-(6-isopropoxypyridin-2-yl)prop-2-yn-1-yl)-2-(6-methyl-4-(trifluoromethyl)pyridin-2-yl)isothiazolidine-3-carboxamide 1,1-dioxide], the IC50 was in the range of 1100 to 5000 nM. In turn, `Cc1cc(C(F)(F)F)cc(N2[C@H](C(=O)N(CC#Cc3ccc(C(N)=O)nn3)c3ccc(F)c(C)c3)CCS2(=O)=O)n1` [Example 29] registered an IC50 of less than 1000 nM.

The molecule `Cc1cc(C(F)(F)F)cc(N2[C@H](C(=O)N(CC#Cc3ccc(=O)[nH]n3)c3ccc(F)c(C)c3)CCS2(=O)=O)n1` [Example 26, (S)-N-(4-fluoro-3-methylphenyl)-2-(6-methyl-4-(trifluoromethyl)pyridin-2-yl)-N-(3-(6-oxo-1,6-dihydropyridazin-3-yl)prop-2-yn-1-yl)isothiazolidine-3-carboxamide 1,1-dioxide] showed an IC50 of less than 1000 nM. `Cc1cc(C(F)(F)F)cc(N2C(=O)CC[C@H]2C(=O)N(CC#CCN2CCN(c3ncccn3)CC2)c2ccc(F)c(C)c2F)n1` [Example 16, (S)—N-(2,4-difluoro-3-methylphenyl)-1-(6-methyl-4-(trifluoromethyl)pyridin-2-yl)-5-oxo-N-(4-(4-(pyrimidin-2-yl)piperazin-1-yl)but-2-yn-1-yl)pyrrolidine-2-carboxamide] returned an IC50 of 1100 to 5000 nM.

`Cc1cc(C(F)(F)F)cc(N2[C@H](C(=O)N(CC#Cc3cccc(=O)n3C)c3ccc(F)c(C)c3)CCS2(=O)=O)n1` [Example 92, (S)-N-(4-fluoro-3-methylphenyl)-2-(6-methyl-4-(trifluoromethyl)pyridin-2-yl)-N-(3-(1-methyl-6-oxo-1,6-dihydropyridin-2-yl)prop-2-yn-1-yl)isothiazolidine-3-carboxamide 1,1-dioxide] gave a half-maximal inhibitory concentration (IC50) of less than 1000 nM.

The molecule `Cc1cc(C(F)(F)F)cc(N2[C@H](C(=O)N(CC#Cc3nccnc3C(N)=O)c3ccc(F)c(C)c3)CCS2(=O)=O)n1` [Example 64, (S)-N-(3-(3-carbamoylpyrazin-2-yl)prop-2-yn-1-yl)-N-(4-fluoro-3-methylphenyl)-2-(6-methyl-4-(trifluoromethyl)pyridin-2-yl)isothiazolidine-3-carboxamide 1,1-dioxide] gave an IC50 of less than 1000 nM. For `Cc1cc(C(F)(F)F)cc(N2C(=O)CC[C@H]2C(=O)N(CC#Cc2cnc(N3CCOCC3)cn2)c2ccc(F)c(C)c2)n1` [Example 10, (S)-N-(4-fluoro-3-methylphenyl)-1-(6-methyl-4-(trifluoromethyl)pyridin-2-yl)-N-(3-(5-morpholinopyrazin-2-yl)prop-2-yn-1-yl)-5-oxopyrrolidine-2-carboxamide], the IC50 was less than 1000 nM. Molecule `Cc1cc(C(F)(F)F)cc(N2[C@H](C(=O)N(CC#Cc3cccc(C(N)=O)c3)c3ccc(F)c(C)c3)CCS2(=O)=O)n1` [Example 106, (S)-N-(3-(3-carbamoylphenyl)prop-2-yn-1-yl)-N-(4-fluoro-3-methylphenyl)-2-(6-methyl-4-(trifluoromethyl)pyridin-2-yl)isothiazolidine-3-carboxamide 1,1-dioxide] returned an IC50 of 1100 to 5000 nM.
